{"source": "paper PMC8468270", "about": "“In Vitro Heme Coordination of a Dye-Decolorizing Peroxidase—The Interplay of Key Amino Acids, pH, Buffer and Glycerol” (International Journal of Molecular Sciences, 2021)", "molecular_target": "T1, KpDyP (WT KpDyP) (Klebsiella pneumoniae, UniProt A0A0W8ATM9)", "T1 construct": "gene yfeX; homodimer; ferric heme; distal D143, R232, L246, F248, proximal H215", "T1 sequence (A0A0W8ATM9 1-299)": "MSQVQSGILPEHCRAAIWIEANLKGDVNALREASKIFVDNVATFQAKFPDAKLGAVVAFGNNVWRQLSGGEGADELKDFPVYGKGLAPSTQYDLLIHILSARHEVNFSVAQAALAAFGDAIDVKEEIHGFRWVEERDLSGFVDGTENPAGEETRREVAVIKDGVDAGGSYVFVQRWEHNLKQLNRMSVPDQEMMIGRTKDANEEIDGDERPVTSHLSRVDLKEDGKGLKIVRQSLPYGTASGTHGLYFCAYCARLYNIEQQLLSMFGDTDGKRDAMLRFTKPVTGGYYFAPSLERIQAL", "test": "X-band CW EPR of frozen solution", "format": "binding", "settings": "glycine-KOH buffer 50 mM, pH 10.0, 10 K, no glycerol; heme iron distal ligand; seen only at low temperature, not at room temperature", "data": [{"smiles": "NCC(=O)O", "note": "[glycine]", "values": [{"measurement": "X-band CW EPR of frozen solution", "value": "glycine binding is also observed for WT and R232A KpDyP at low temperature"}]}]}
